Results from patent publication US20110086898A1, “PYRAZOLOOXAZOLE COMPOUND” (Eisai R&D Management Co., Ltd., priority 2009, published 2011).
One block for each compound: values may come before it.

How the values were obtained:
[1] = target: T1, human CRFR1 (Homo sapiens, UniProt P34998); assay: CRFR1 binding test (SPA competition with 125I-CRF); conditions: membrane fraction of human CRFR1-expressing HEK293 cells, read-out: CRF1 receptor binding capacity IC50
T1 construct: The full-length CRFR1 gene was obtained by PCR by using human brain cDNA library; expressed in transfected cells
T1 sequence (P34998 24-415): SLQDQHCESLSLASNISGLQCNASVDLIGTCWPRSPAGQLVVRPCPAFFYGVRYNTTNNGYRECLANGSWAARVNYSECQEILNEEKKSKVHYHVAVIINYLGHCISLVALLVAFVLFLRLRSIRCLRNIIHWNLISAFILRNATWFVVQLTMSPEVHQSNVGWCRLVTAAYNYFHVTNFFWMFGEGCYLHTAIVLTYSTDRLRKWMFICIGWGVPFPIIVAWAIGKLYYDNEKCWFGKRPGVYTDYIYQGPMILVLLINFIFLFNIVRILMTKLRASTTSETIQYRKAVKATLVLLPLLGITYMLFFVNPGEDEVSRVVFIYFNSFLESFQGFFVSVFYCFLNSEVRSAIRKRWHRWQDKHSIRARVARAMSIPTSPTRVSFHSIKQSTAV
Procedure: (1) Preparation of CRFR1-Expressing Cells
The membrane fraction of human CRFR1 high-expressing cells was used as the material for a CRFR1 binding experiment. The CRFR1-expressing cells were prepared in the following manner. The full-length CRFR1 gene was obtained by PCR by using human brain cDNA library (QuickClone™, Clontech). The obtained DNA fragment was inserted into a cloning vector and the base sequence was confirmed cDNA having the proper base sequence was linked to an expression vector (pcDNA3.1™, Invitrogen). The CRFR1 expression vector was genetically introduced into HEK293 cell, and the resistant cells which proliferated in culture medium containing G418 (1 mg/ml) were cloned by the limiting dilution method. Out of the cloned cells, cells having high binding capacity between the membrane fraction per unit protein and sauvagine were selected according to the following binding experiment, and the selected cells were used for the experiments.
(2) Preparation of Membrane Fraction
The cloned cells obtained in (1) were collected and suspended in ice-cooled membrane buffer (50 mM Tris-HCl, 5 mM MgCl2, 2 mM EGTA, 1 mM DTT, protease inhibitor cocktail (COMPLETE™, Roche Diagnostics) pH 7.3), and then the cells were disrupted with a Polytron (KINEMATICA) while cooling on ice (level 5, 10 seconds, 2-5 times, ice-cooling) and then centrifuged (2,000 rpm, 5 minutes, 4° C.), followed by collecting the supernatant. Membrane buffer was added to the precipitate, and the mixture was subjected to Polytron treatment (same conditions as mentioned above) and centrifuged (conditions as mentioned above), and the obtained supernatant was collected and combined with the previous supernatant. This was centrifuged (13,000 rpm (18,000×g), 30 minutes, 4° C.) to prepare cell membranes. The precipitated cell membranes were suspended in membrane buffer and disrupted with a Polytron (level 5, 10 seconds, 3-5 times, ice-cooling) to prepare a dispersed suspension. The protein assay was carried out.
The following method (1) or (2) was earned out for use as the cell membrane action.
(1) The above dispersed suspension was diluted with membrane buffer containing 0.1% BSA to a protein concentration of 200 μg/ml, for use as the cell membrane fraction.
(2) The above dispersed suspension was freeze-preserved, and if necessary, thawed, re-dispersed and diluted for use as the cell membrane fraction.
A binding competition experiment with CRF was conducted by the SPA (GE Healthcare) method using a 96-well plate. Five jug of the cell membrane fraction protein, 1 mg of SPA beads and […] ^125I-CRF (Perkin Elmer) were allowed to stand at mom temperature for at least two hours in the presence of a test compound, and the radioactivity of each well after centrifugation (1,200 rpm (260×g), five minutes, room temperature) was measured with a TopCount (registered trademark; Perkin Elmer).
(4) Calculation of Binding Capacity
The radioactivity with addition of a 4,000-fold excess of non-radioactive sauvagine as the nonspecific binding was subtracted from each value, and the resulting value was expressed as a percentage (% of control), with 100% as the radioactivity without addition of the test compound (control).

[2] = test system: male Balb/c mice; assay: Light/dark box test in mice (anxiolytic effect); format: in vivo; conditions: for anxiolytic effect in the light/dark box test in mice: dose 30 mg/kg, oral administration; for Effective Dose: minimum dose significantly prolonging time spent in light box vs vehicle, oral, one hour prior to test, Balb/c mice
Procedure: Evaluation of Anxiolytic Effect in Light/Dark Box Test in Mice
The light/dark box test in mice was carried out according to a modified method of Belzung C., Misslin R., and Vogel E. et al. (Reference; Behavioural effects of the benzodiazepine receptor partial agonist RO16-6028 in mice, Psychopharmacology, 97, 388-391, 1989). The test apparatus used in this test was a light/dark box including a covered black acrylic box (dark box; 15×10×20 cm), a white acrylic box with top opened (light box; 15×20×20 cm) and a black acrylic tunnel (10×7×4.5 cm) that connects the dark box and the light box and enables a mouse to freely move back and forth between the dark box and light box. In this test apparatus, however, a transparent acrylic plate was used for the front side (20×20 cm) and back side (20×20 cm) of the light box to allow observation of the behavior. After setting illumination so that the light intensity of the floor surface of the light box became 150 Lux, 5-week-old male Balb/c mice (purchased from Nihon Charles River) were introduced into the dark box and the test was started. In the test; the tested compound was suspended in 5% dimethyl sulfoxide, 5% Cremopor EL and 90% physiological saline and orally administered to the test animals one hour prior to the start of the test.
(2) Calculation of Anxiolytic Effect:
The time spent in the light box was measured as an index of the anxiolytic effect, with “spend in the light box” defined as the state in which all limbs of the mice were on the floor of the light box. […] The statistical significance between the vehicle-treated group and the test compound-treated groups was analyzed by one-way layout analysis of variance followed by Dunnett multiple comparison when multiple doses were set for the same test, and by the Mann-Whitney U test when only one dose was set.

[3] = test system: rat; conditions: Brain Research, 893:29-35 (2001); cited from earlier work
[4] = test system: Tg2576 transgenic mice; conditions: Journal of Neurochemistry, 108: 165-175 (2009); cited from earlier work
[5] = test system: limbic system seizure; conditions: Brain Research, 770:89-95; cited from earlier work
[6] = test system: stress-related reduction in food intake; conditions: Brain Research, 823: 221-225 (1999); cited from earlier work
[7] = test system: IBS patients; conditions: Gut 2004, 53:958-964; cited from earlier work
[8] = test system: ethanol withdrawal rats; conditions: Brain Research, 605:25-32 (1993); cited from earlier work
[9] = test system: intracerebral amyloid-β; conditions: PNAS 104: 10673-10678 (2007); cited from earlier work
[10] = test system: ischemic and excitotoxic encephalopathy; conditions: Brain Research, 656: 405-408 (1994); cited from earlier work

Compound: CCc1nn2c(-c3c(OC)cc(COC)cc3OC)c(C)oc2c1N(CC1CCOCC1)CC1CC1 [Example 5, N-(cyclopropylmethyl)-3-[2,6-dimethoxy-4-(methoxymethyl)phenyl]-6-ethyl-2-methyl-N-(tetrahydro-2H-pyran-4-ylmethyl)pyrazolo[5,1-b][1,3]oxazole-7-amine]
IC50 [1]: 0.032 µM
anxiolytic effect in the light/dark box test in mice [2]: statistically significant effects
Effective Dose [2]: 30 mg/kg

Compound: COCc1cc(OC)c(-c2c(C)oc3c(N(CC4CCOCC4)CC4CC4)c(C)nn23)c(OC)c1 [Example 10, N-(cyclopropylmethyl)-3-[2,6-dimethoxy-4-(methoxymethyl)phenyl]-2,6-dimethyl-N-(tetrahydro-2H-pyran-4-ylmethyl)pyrazolo[5,1-b][1,3]oxazole-7-amine]
IC50 [1]: 0.071 µM
anxiolytic effect in the light/dark box test in mice [2]: statistically significant effects
Effective Dose [2]: 30 mg/kg

Compound: CCc1nn2c(-c3c(OC)cc(COC)cc3OC)c(C)oc2c1N(CC1CC1)CC1CC1 [Example 7, N,N-bis(cyclopropylmethyl)-3-[2,6-dimethoxy-4-(methoxymethyl)phenyl]-6-ethyl-2-methylpyrazolo[5,1-b][1,3]oxazole-7-amine]
IC50 [1]: 0.021 µM

Compound: CCc1nn2c(-c3c(OC)cc(COC)cc3OC)c(C)oc2c1N(CC(C)C)CC1CCOCC1 [Example 6, 3-[2,6-dimethoxy-4-(methoxymethyl)phenyl]-6-ethyl-N-isobutyl-2-methyl-N-(tetrahydro-2H-pyran-4-ylmethyl)pyrazolo[5,1-b][1,3]oxazole-7-amine]
IC50 [1]: 0.043 µM

Compound: CCOCc1cc(OC)c(-c2c(C)oc3c(N(CC4CC4)CC4CCOC4)c(CC)nn23)c(OC)c1 (stereo not drawn) [Example 9, N-(cyclopropylmethyl)-3-[4-(ethoxymethyl)-2,6-dimethoxyphenyl]-6-ethyl-2-methyl-N-(tetrahydrofuran-3-ylmethyl)pyrazolo[5,1-b][1,3]oxazole-7-amine]
IC50 [1]: 0.044 µM

Compound: CCCN(CC1CC1)c1nc(C)nc(Nc2c(Cl)cc(Cl)cc2Cl)c1Cl [NBI-27914]
water avoidance stress-related rat catharsis [3]: inhibits
increased levels of Aβ and Aβ plaque deposition induced by stress [4]: inhibits
limbic system seizure (convulsion and epilepsy induced by CRF administration) [5]: inhibits

Compound: COCc1cc(OC)c(-c2c(C)oc3c(N(CC(C)C)CC4CCOCC4)c(C)nn23)c(OC)c1 [Example 11, 3-[2,6-dimethoxy-4-(methoxymethyl)phenyl]-N-isobutyl-2,6-dimethyl-N-(tetrahydro-2H-pyran-4-ylmethyl)pyrazolo[5,1-b][1,3]oxazole-7-amine]
IC50 [1]: 0.05 µM

Compound: CCN(c1nc(C)cc(N2CC=C(c3cccc(F)c3)CC2)n1)c1ccc(C(C)C)cc1SC [CRA1000]
stress-related reduction in food intake [6]: inhibit

Compound: α-helical CRF (9-41)
abdominal pain and anxiety [7]: reduces
colon intestinal hyperkinesis [7]: inhibits
anxiety behavior in ethanol withdrawal rats [8]: inhibits
stress-related reduction in food intake [6]: inhibit
stress-related increase in intracerebral amyloid-β [9]: suppresses
ischemic and excitotoxic encephalopathy [10]: inhibits

Compound: CCc1nn2c(-c3c(OC)cc(COC)cc3OC)coc2c1N(CC1CCOCC1)CC1CC1 [Example 3, N-(cyclopropylmethyl)-3-[2,6-dimethoxy-4-(methoxymethyl)phenyl]-6-ethyl-N-(tetrahydro-2H-pyran-4-ylmethyl)pyrazolo[5,1-b][1,3]oxazole-7-amine]
IC50 [1]: 0.1 µM

Compound: CCc1nn2c(-c3c(OC)cc(COC)cc3OC)c(C)oc2c1N(CC1CC1)CC1CCOC1 (stereo not drawn) [Example 8, N-(cyclopropylmethyl)-3-[2,6-dimethoxy-4-(methoxymethyl)phenyl]-6-ethyl-2-methyl-N-(tetrahydrofuran-3-ylmethyl)pyrazolo[5,1-b][1,3]oxazole-7-amine]
IC50 [1]: 0.077 µM

Now from value to compound:

IC50 [1]: 0.079 µM
Compound: COCc1cc(OC)c(-c2c(C)oc3c(N(CC(C)C)CC4CCOC4)c(C)nn23)c(OC)c1 (stereo not drawn) [Example 12, 3-[2,6-dimethoxy-4-(methoxymethyl)phenyl]-N-isobutyl-2,6-dimethyl-N-(tetrahydrofuran-3-ylmethyl)pyrazolo[5,1-b][1,3]oxazole-7-amine]

IC50 [1]: 0.102 µM
Compound: CCc1nn2c(-c3c(OC)cc(COC)cc3OC)c(C)oc2c1N(CC1CC1)C1CCOCC1 [Example 16, N-(cyclopropylmethyl)-3-[2,6-dimethoxy-4-(methoxymethyl)phenyl]-6-ethyl-2-methyl-N-(tetrahydro-2H-pyran-4-yl)pyrazolo[5,1-b][1,3]oxazole-7-amine]

IC50 [1]: 0.098 µM
Compound: CCCCN(c1c(CC)nn2c(-c3c(OC)cc(COC)cc3OC)c(C)oc12)C1CCOCC1 [Example 15, N-butyl-3-[2,6-dimethoxy-4-(methoxymethyl)phenyl]-6-ethyl-2-methyl-N-(tetrahydro-2H-pyran-4-yl)pyrazolo[5,1-b][1,3]oxazole-7-amine]

IC50 [1]: 0.061 µM
Compound: CCOCc1cc(OC)c(-c2c(C)oc3c(N(CC4CCOCC4)CC4CC4)c(C)nn23)c(OC)c1 [Example 13, N-(cyclopropylmethyl)-3-[4-(ethoxymethyl)-2,6-dimethoxyphenyl]-2,6-dimethyl-N-(tetrahydro-2H-pyran-4-ylmethyl)pyrazolo[5,1-b][1,3]oxazole-7-amine]

IC50 [1]: 0.121 µM
Compound: CCc1nn2c(-c3c(OC)cc(COC)cc3OC)c(C)oc2c1N(CC1CC1)CC1COCOC1 [Example 14, N-(cyclopropylmethyl)-3-[2,6-dimethoxy-4-(methoxymethyl)phenyl]-N-(1,3-dioxan-5-ylmethyl)-6-ethyl-2-methylpyrazolo[5,1-b][1,3]oxazole-7-amine]
